From US5075440A, “Novel pyrido[2,3-f](1,4)thiazepines and pyrido[3,2-b](1,5)benzothiazepines” (Ortho Pharmaceutical Corporation, priority 1990, dated 1991)
Several values for one entry are separate records, joined by “and”; a condition that tells them apart may be missing. Identical values can stand only once.

Experiments:
trachealis muscle tissue = assay: Inhibition of calcium dependent smooth muscle contraction, trachea (P#176 Trach); set-up: species or system dog; conditions: Canis lupus familiaris, 50 mM KCl contraction, read-out: P#176 Trach % INHB/μM
Description: (§1) The test for inhibition of calcium dependent smooth muscle contraction is determined according to the following procedure:
(§2) The trachea and the aorta from dogs sacrificed by excess KCl injection are stored overnight at 4° C. in oxygenated Krebs-Henseleit buffer. Tracheal rings, one cartilage segment wide (5-10 mm), are cut starting from the bronchial end. Rings of aorta tissue of the same width are also prepared. After cutting the cartilage, the trachealis muscle tissue and the aorta tissue are suspended in oxygenated Krebs-Henseleit buffer at 37° C. in a 25 ml tissue bath. After a 60-minute equilibration period, the tissues are challenged with 10 μM carbachol. After 5 minutes, the tissues are rinsed and allowed to rest 50 minutes. The tissues are then challenged with 50 mM KCl and, after 30 minutes, the contractions are quantitated. The tissues are then rinsed and reequilibrated for 50 minutes. Test compounds are then added for 10 minutes, and the tissue is rechallenged with 50 mM KCl. After 30 minutes, the contraction is recorded and used to determine the % inhibition of control.
(§3) The percent inhibition of smooth muscle contraction is calculated from response data before and after drug treatment. [formula]

aorta tissue = assay: Inhibition of calcium dependent smooth muscle contraction, aorta (P#176 Aorta); set-up: species or system dog; conditions: Canis lupus familiaris, 50 mM KCl contraction, read-out: P#176 Aorta % INHB/μM
Description: as §1, §2, §3

[1] = target: T1, Calcium Channel (3H-nitrendipine binding, heart membranes) (Oryctolagus cuniculus, UniProt P15381); assay: Inhibition of 3H-nitrendipine binding (P#166 Nit. Binding); set-up: species or system rabbit; conditions: for IC50: rabbit heart membranes, 3H-nitrendipine 0.05-0.50 nM
T1 construct: the heart is immediately removed, cleaned and chopped into small pieces; The tissue is homogenized; from tissue; host or cells: heart membranes of female New Zealand white rabbits (42,000×g pellet)
Description: The assay for inhibition of nitrendipine binding is performed using the following procedure:
Female, New Zealand white rabbits (1-2 kg) are sacrificed by cervical dislocation, and the heart is immediately removed, cleaned and chopped into small pieces. The tissue is homogenized in 5×volume of 0.05M Hepes buffer, pH 7.4. The homogenate is centrifuged at 4000×g for 10 minutes, and the supernatant is recentrifuged at 42,000×g for 90 minutes. The resulting membrane pellet is resuspended (0.7 ml/g weight) in 0.05M Hepes, pH 7.4 and stored at […] until used. Each tube of the binding assay contains ^3 H-nitrendipine (0.05-0.50 nM), buffer, membranes (0.10 ml), and test compound in a total volume of 1.0 ml. After 90 minutes at 4° C., the bound nitrendipine is separated from the unbound by filtration on Whatman GF/C filters. After rinsing, the filters are dried and counted in a liquid scintillation counter.
Non-specific binding of ^3 H-nitrendipine (that amount bound in the presence of excess unlabelled nitrendipine) is subtracted from the total bound to obtain specifically bound radiolabeled nitrendipine. The amount of specifically bound nitrendipine in the presence of a test compound is compared to that amount bound in the absence of a compound. A percent displacement (or inhibition) can then be obtained.

T1 sequence (P15381 whole entry, other chains not shown): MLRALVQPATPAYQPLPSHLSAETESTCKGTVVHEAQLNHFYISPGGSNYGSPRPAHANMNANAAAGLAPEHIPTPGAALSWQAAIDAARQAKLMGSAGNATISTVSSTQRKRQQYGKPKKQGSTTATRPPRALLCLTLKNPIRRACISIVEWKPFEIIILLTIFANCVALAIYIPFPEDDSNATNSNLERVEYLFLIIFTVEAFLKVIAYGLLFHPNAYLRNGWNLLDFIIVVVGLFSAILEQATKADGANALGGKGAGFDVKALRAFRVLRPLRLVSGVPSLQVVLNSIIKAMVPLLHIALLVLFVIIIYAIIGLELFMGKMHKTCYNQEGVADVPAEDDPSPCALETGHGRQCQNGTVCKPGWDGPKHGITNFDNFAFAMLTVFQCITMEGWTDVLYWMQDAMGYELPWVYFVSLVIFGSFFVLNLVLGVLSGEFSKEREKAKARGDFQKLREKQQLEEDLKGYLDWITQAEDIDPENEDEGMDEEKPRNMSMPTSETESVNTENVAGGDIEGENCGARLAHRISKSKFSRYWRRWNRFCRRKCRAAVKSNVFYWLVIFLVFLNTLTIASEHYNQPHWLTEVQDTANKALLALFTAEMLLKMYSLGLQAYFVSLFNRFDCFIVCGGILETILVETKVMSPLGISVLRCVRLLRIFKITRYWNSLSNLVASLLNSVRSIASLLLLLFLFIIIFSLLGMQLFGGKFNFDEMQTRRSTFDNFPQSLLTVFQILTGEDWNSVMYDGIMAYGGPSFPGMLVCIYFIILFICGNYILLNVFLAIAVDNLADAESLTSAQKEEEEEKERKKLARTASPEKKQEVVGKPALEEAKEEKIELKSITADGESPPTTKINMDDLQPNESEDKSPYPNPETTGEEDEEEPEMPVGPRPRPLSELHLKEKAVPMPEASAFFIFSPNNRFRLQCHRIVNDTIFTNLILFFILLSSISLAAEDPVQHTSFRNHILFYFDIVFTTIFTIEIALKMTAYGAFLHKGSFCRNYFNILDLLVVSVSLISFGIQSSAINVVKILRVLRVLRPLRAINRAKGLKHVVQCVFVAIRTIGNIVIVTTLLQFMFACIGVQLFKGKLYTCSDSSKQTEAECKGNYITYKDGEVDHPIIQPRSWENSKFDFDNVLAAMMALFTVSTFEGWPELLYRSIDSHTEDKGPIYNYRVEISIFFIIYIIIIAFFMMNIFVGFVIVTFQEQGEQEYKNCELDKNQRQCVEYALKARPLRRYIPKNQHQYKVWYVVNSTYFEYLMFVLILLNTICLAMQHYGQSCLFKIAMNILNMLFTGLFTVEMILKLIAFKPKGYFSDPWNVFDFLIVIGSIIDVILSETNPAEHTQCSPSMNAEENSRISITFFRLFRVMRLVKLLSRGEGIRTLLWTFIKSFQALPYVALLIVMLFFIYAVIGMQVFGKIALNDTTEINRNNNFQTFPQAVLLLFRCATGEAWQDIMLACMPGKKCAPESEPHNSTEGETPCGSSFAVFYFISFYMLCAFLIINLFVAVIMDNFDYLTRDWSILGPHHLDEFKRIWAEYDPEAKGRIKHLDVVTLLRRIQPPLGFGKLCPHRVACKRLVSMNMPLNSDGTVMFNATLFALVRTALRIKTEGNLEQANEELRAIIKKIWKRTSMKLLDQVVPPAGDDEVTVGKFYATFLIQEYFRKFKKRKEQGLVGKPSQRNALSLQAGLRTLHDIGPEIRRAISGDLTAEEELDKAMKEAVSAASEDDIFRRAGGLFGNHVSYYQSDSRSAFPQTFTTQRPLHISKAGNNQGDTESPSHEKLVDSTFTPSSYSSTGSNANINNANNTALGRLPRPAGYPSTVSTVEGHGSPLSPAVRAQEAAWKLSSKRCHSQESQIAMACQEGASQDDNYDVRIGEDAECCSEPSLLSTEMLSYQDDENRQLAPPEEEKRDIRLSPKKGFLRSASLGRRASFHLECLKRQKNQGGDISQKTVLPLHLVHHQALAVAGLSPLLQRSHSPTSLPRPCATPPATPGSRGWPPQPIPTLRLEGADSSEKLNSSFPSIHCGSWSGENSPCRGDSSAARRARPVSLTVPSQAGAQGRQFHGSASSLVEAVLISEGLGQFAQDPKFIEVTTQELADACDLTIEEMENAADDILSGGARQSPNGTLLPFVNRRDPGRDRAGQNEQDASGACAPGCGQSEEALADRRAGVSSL
T1 sequence (P13806 27-960 partner limits assumed, other chains not shown): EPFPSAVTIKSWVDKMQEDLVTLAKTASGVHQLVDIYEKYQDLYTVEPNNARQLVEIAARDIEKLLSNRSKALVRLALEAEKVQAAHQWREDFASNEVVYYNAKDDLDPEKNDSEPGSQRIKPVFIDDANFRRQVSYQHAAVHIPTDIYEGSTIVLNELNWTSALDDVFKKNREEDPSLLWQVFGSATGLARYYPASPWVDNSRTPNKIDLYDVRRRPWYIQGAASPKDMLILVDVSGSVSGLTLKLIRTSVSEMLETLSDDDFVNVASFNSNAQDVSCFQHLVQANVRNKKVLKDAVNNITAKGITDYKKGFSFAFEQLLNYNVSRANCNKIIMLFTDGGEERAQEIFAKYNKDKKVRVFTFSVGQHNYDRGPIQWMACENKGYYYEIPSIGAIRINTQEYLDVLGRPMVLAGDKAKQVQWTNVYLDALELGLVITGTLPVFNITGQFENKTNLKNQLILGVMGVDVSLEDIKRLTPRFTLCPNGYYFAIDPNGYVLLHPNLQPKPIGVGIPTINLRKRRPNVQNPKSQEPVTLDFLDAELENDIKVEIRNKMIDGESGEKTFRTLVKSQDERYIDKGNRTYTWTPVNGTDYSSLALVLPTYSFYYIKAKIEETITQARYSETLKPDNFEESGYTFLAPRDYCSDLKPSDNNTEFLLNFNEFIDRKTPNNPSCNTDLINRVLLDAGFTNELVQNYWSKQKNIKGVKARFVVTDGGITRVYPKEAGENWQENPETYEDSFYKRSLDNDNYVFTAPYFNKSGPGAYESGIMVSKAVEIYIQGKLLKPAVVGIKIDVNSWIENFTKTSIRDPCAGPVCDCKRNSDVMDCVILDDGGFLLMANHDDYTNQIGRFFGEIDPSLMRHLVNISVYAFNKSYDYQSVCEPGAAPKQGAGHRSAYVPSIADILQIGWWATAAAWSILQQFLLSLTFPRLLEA
T1 sequence (P13806 961-1106 partner limits assumed, other chains not shown): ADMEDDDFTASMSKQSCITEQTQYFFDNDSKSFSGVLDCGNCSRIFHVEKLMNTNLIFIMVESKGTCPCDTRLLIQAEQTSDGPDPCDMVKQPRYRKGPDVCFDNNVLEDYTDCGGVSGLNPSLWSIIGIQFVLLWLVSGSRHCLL

IC50 [1]	inhibition at 1 µM ([1]; @ 1.0 μM test compound) [%]	Structure (SMILES)	inhibition at 0.01 µM (trachealis muscle tissue) [%]	inhibition at 0.1 µM (trachealis muscle tissue) [%]	inhibition at 2 µM (trachealis muscle tissue) [%]	inhibition at 0.01 µM (aorta tissue) [%]	inhibition at 0.1 µM (aorta tissue) [%]	inhibition at 1 µM (aorta tissue) [%]	inhibition at 0.3 µM (trachealis muscle tissue) [%]	inhibition at 1 µM (trachealis muscle tissue) [%]
120 nM		CCOC(=O)C1=C(C)NC2=C(C1c1cccc(Cl)c1Cl)S(=O)(=O)CCN(C)C2 (centres unmarked) [2,3-dichloro / Me / ethyl, Ethyl 9-(2,3-dichlorophenyl)-4,7-dimethy-1,1-dioxo-2,3,4,5,6,9-hexahydropyrido[2,3-f][1,4]thiazepine-8-carboxylate]	55	80	98	67	96	97		
	7	CCOC(=O)C1=C(C)NC2=C(C1c1ccccc1C(F)(F)F)S(=O)(=O)CCN(C(=O)OC(C)(C)C)C2 (centres unmarked) [2-CF3 / BOC / ethyl]			50		37	47	24	
210 nM		CCOC(=O)C1=C(C)NC2=C(C1c1cccc(Cl)c1Cl)S(=O)(=O)CCN(Cc1ccccc1)C2 (centres unmarked) [2,3-dichloro / Bz / ethyl, Ethyl 4-N-Benzyl-9-(2,3-dichlorophenyl) -1,1-dioxo-2,3,4,5,6,9-hexahydro-7-methylpyrido [2,3-f][1,4]thiazepine-8-carboxylate]		10	32			79		
90 nM		CCOC(=O)C1=C(C)NC2=C(C1c1c(F)c(F)c(F)c(F)c1F)S(=O)(=O)CCNC2 (centres unmarked) [pentafluoro / H / ethyl, Ethyl 1,1-dioxo-2,3,4,5,6,9-hexahydro-7-methyl-9-(2,3,4,5,6-pentafluorophenyl)-pyrido[2,3-f][1,4]-thiazepine-8-carboxylate]	13	63	98	61	89	95		
60 nM		CCOC(=O)C1=C(C)NC2=C(C1c1cccc(Cl)c1Cl)S(=O)(=O)CCN(CC)C2 (centres unmarked) [2,3-dichloro / Et / ethyl, Ethyl 9-(2,3-dichlorophenyl)-1,1-dioxo-4-ethyl-2,3,4,5,6,9-hexahydro-7-methyl-pyrido[2,3-f][1,4]-thiazepine-8-carboxylate]	33			19	76	96	70	90
99 nM and 105 nM		CCOC(=O)C1=C(C)NC2=C(C1c1cccc(Cl)c1Cl)S(=O)(=O)CCNC2 (centres unmarked) [2,3-dichloro / H / ethyl, Ethyl 9-(2,3-dichlorophenyl)-1,1-dioxo-2,3,4,5,6,9-hexahydro-7-methyl-pyrido[2,3-f][1,4]thiazepine-8-carboxylate]		43		21	85	96		73
870 nM		CCOC(=O)C1=C(C)NC2=C(C1c1c(F)cccc1Cl)S(=O)(=O)CCNC2 (centres unmarked) [2-Cl, 6-F / H / ethyl]			88	4.8		86	56	
